Values quoted from earlier work, collected in patent US20180291400A1, “METHODS AND COMPOSITIONS TO INCREASE HUMAN SOMATIC CELL NUCLEAR TRANSFER (SCNT) EFFICIENCY BY REMOVING HISTONE H3-LYSINE TRIMETHYLATION, AND DERIVATION OF HUMAN NT-ESC” (CHILDREN'S MEDICAL CENTER CORPORATION, priority 2015, published 2018).

Columns and labels:
SUV39h2 = SUV39h2 (Homo sapiens, UniProt Q9H5I1)
SUV39h2, sequence (Q9H5I1 whole entry): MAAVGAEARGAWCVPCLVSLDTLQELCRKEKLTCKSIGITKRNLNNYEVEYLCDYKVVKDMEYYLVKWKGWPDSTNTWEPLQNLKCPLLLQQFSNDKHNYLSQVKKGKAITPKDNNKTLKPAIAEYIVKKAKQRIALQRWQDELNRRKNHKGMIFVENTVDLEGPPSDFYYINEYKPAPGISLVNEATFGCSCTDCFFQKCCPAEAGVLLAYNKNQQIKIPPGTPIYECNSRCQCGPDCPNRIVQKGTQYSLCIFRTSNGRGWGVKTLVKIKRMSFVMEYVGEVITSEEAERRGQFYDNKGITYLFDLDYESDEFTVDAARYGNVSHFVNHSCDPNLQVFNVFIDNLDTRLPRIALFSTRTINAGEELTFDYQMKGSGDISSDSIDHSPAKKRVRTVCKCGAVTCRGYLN

Row | IC50 (SUV39h2) | SMILES | levels of H3K27me3 and H3K9me3 (SETDB1 H3K9me3 HMTase)
1 | > 10 µM | COc1cc2c(NC3CCN(C(C)C)CC3)nc(C3CCCCC3)nc2cc1OCCCN1CCCC1 [UNC0638, 2-Cyclohexyl-N-(1-isopropylpiperidin-4-yl)-6-methoxy-7-(3-(pyrrolidin-1-yl)propoxy)quinazolin-4-amine] | –
2 | – | Nc1nccc2c1ncn2[C@@H]1C=C(CO)[C@@H](O)[C@H]1O [DZNep, 3-Deazaneplanocin A] | reduced levels of both H3K27me3 and H3K9me3
